Tested on: 422866-222-R5-J1-PDC complex spheroids viability
Experiment: Anticancer human tumor 422866-222-R5-J1-PDC patient-derived pancreatic adenocarcinoma cell line growth inhibition [RAS]
Conditions: for IC50: curve of first compound; for viability, T/C: stronger effect = lower value
Outline: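 Agents were tested in combination matrices in half-log decrements from a top concentration at or near clinical Cmax (10 microM if undetermined). Targets were multi-cell spheroids of tumour lines plus HUVEC and MSC stromal cells.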

[1] = second compound 0.00316 µM, first compound 0.0316 µM
[2] = second compound 0.00316 µM, first compound 0.1 µM
[3] = second compound 0.00316 µM, first compound 0.316 µM
[4] = second compound 0.00316 µM, first compound 1 µM
[5] = second compound 0.00316 µM, first compound 3.16 µM
[6] = second compound 0.00316 µM, first compound 10 µM
[7] = second compound 0.01 µM, first compound 0.0316 µM
[8] = second compound 0.01 µM, first compound 0.1 µM
[9] = second compound 0.01 µM, first compound 0.316 µM
[10] = second compound 0.01 µM, first compound 1 µM
[11] = second compound 0.01 µM, first compound 3.16 µM
[12] = second compound 0.01 µM, first compound 10 µM
[13] = second compound 0.0316 µM, first compound 0.0316 µM
[14] = second compound 0.0316 µM, first compound 0.1 µM
[15] = second compound 0.0316 µM, first compound 0.316 µM
[16] = second compound 0.0316 µM, first compound 1 µM
[17] = second compound 0.0316 µM, first compound 3.16 µM
[18] = second compound 0.0316 µM, first compound 10 µM
[19] = second compound 0.1 µM, first compound 0.0316 µM
[20] = second compound 0.1 µM, first compound 0.1 µM
[21] = second compound 0.1 µM, first compound 0.316 µM
[22] = second compound 0.1 µM, first compound 1 µM
[23] = second compound 0.1 µM, first compound 3.16 µM
[24] = second compound 0.1 µM, first compound 10 µM
[25] = second compound 0.316 µM, first compound 0.0316 µM
[26] = second compound 0.316 µM, first compound 0.1 µM
[27] = second compound 0.316 µM, first compound 0.316 µM
[28] = second compound 0.316 µM, first compound 1 µM
[29] = second compound 0.316 µM, first compound 3.16 µM
[30] = second compound 0.316 µM, first compound 10 µM
[31] = second compound 1 µM, first compound 0.0316 µM
[32] = second compound 1 µM, first compound 0.1 µM
[33] = second compound 1 µM, first compound 0.316 µM
[34] = second compound 1 µM, first compound 1 µM
[35] = second compound 1 µM, first compound 3.16 µM
[36] = second compound 1 µM, first compound 10 µM
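Also: spheroids exposed to compounds for 7 days.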
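For viability, T/C in this document: 100% = DMSO vehicle control viability.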

CC1(O)CCCC1n1c(=O)c(C(F)F)cc2cnc(NC3CCN(S(C)(=O)=O)CC3)nc21 (stereo not given) + C=CC(=O)N1CCN(c2nc(OCC3CCCN3C)nc3c(F)c(-c4nc(N)cc(C)c4C(F)(F)F)c(Cl)cc23)C(C)C1
IC50 (second compound 0.00316 µM): < 31.6 nM | IC50 (second compound 0.01 µM): < 31.6 nM | IC50 (second compound 0.0316 µM): < 31.6 nM | IC50 (second compound 0.1 µM): < 31.6 nM | IC50 (second compound 0.316 µM): < 31.6 nM | IC50 (second compound 1 µM): < 31.6 nM | viability, T/C [1]: 32.6% | viability, T/C [2]: 25.6% | viability, T/C [3]: 26% | viability, T/C [4]: 31.4% | viability, T/C [5]: 33.3% | viability, T/C [6]: 33.1% | viability, T/C [7]: 27.6% | viability, T/C [8]: 25.8% | viability, T/C [9]: 28.1% | viability, T/C [10]: 25.4% | viability, T/C [11]: 30.3% | viability, T/C [12]: 33.9% | viability, T/C [13]: 33.6% | viability, T/C [14]: 20.7% | viability, T/C [15]: 22.5% | viability, T/C [16]: 21.6% | viability, T/C [17]: 26.5% | viability, T/C [18]: 24.9% | viability, T/C [19]: 18.4% | viability, T/C [20]: 19.9% | viability, T/C [21]: 22.1% | viability, T/C [22]: 23% | viability, T/C [23]: 28% | viability, T/C [24]: 29.3% | viability, T/C [25]: 21.9% | viability, T/C [26]: 20.4% | viability, T/C [27]: 23.6% | viability, T/C [28]: 23.8% | viability, T/C [29]: 29.7% | viability, T/C [30]: 35.3% | viability, T/C [31]: 20.6% | viability, T/C [32]: 20.3% | viability, T/C [33]: 23.9% | viability, T/C [34]: 23.4% | viability, T/C [35]: 30.6% | viability, T/C [36]: 40.1%

CCC(CC)c1cc(NC2CCC(N)C2)n2nccc2n1 (stereo not given) + C=CC(=O)N1CCN(c2nc(OCC3CCCN3C)nc3c(F)c(-c4nc(N)cc(C)c4C(F)(F)F)c(Cl)cc23)C(C)C1
IC50 (second compound 0.00316 µM): < 31.6 nM | IC50 (second compound 0.01 µM): < 31.6 nM | IC50 (second compound 0.0316 µM): < 31.6 nM | IC50 (second compound 0.1 µM): < 31.6 nM | IC50 (second compound 0.316 µM): < 31.6 nM | IC50 (second compound 1 µM): < 31.6 nM | viability, T/C [1]: 25.9% | viability, T/C [2]: 36.1% | viability, T/C [3]: 32.8% | viability, T/C [4]: 30.5% | viability, T/C [5]: 9.42% | viability, T/C [6]: 32.1% | viability, T/C [7]: 36.9% | viability, T/C [8]: 26.8% | viability, T/C [9]: 30.6% | viability, T/C [10]: 28.9% | viability, T/C [11]: 8.11% | viability, T/C [12]: 33.1% | viability, T/C [13]: 38.8% | viability, T/C [14]: 34.4% | viability, T/C [15]: 26.6% | viability, T/C [16]: 27.2% | viability, T/C [17]: 8.27% | viability, T/C [18]: 31.5% | viability, T/C [19]: 19.1% | viability, T/C [20]: 24.1% | viability, T/C [21]: 24.2% | viability, T/C [22]: 25.6% | viability, T/C [23]: 6.99% | viability, T/C [24]: 35.6% | viability, T/C [25]: 19.3% | viability, T/C [26]: 22.3% | viability, T/C [27]: 27.6% | viability, T/C [28]: 25.3% | viability, T/C [29]: 7.15% | viability, T/C [30]: 36.3% | viability, T/C [31]: 19.6% | viability, T/C [32]: 22.8% | viability, T/C [33]: 28.9% | viability, T/C [34]: 27.1% | viability, T/C [35]: 9.75% | viability, T/C [36]: 41.1%

CCN1CCN(Cc2ccc(Nc3ncc(F)c(-c4cc(F)c5nc(C)n(C(C)C)c5c4)n3)nc2)CC1 + C=CC(=O)N1CCN(c2nc(OCC3CCCN3C)nc3c(F)c(-c4nc(N)cc(C)c4C(F)(F)F)c(Cl)cc23)C(C)C1
IC50 (second compound 0.00316 µM): < 3.16 nM | IC50 (second compound 0.01 µM): < 3.16 nM | IC50 (second compound 0.0316 µM): < 3.16 nM | IC50 (second compound 0.1 µM): < 3.16 nM | IC50 (second compound 0.316 µM): < 3.16 nM | IC50 (second compound 1 µM): < 3.16 nM | viability, T/C (second compound 0.00316 µM, first compound 0.00316 µM): 25.2% | viability, T/C (second compound 0.00316 µM, first compound 0.01 µM): 32.4% | viability, T/C [1]: 26.4% | viability, T/C [2]: 21% | viability, T/C [3]: 31.8% | viability, T/C [4]: 36.3% | viability, T/C (second compound 0.01 µM, first compound 0.00316 µM): 25.3% | viability, T/C (second compound 0.01 µM, first compound 0.01 µM): 24.6% | viability, T/C [7]: 24.8% | viability, T/C [8]: 23.3% | viability, T/C [9]: 25.8% | viability, T/C [10]: 30.3% | viability, T/C (second compound 0.0316 µM, first compound 0.00316 µM): 22.7% | viability, T/C (second compound 0.0316 µM, first compound 0.01 µM): 22.1% | viability, T/C [13]: 22.5% | viability, T/C [14]: 18.5% | viability, T/C [15]: 27.8% | viability, T/C [16]: 30.5% | viability, T/C (second compound 0.1 µM, first compound 0.00316 µM): 24.4% | viability, T/C (second compound 0.1 µM, first compound 0.01 µM): 22.2% | viability, T/C [19]: 21% | viability, T/C [20]: 20.7% | viability, T/C [21]: 24.5% | viability, T/C [22]: 31% | viability, T/C (second compound 0.316 µM, first compound 0.00316 µM): 18.9% | viability, T/C (second compound 0.316 µM, first compound 0.01 µM): 20.2% | viability, T/C [25]: 20.3% | viability, T/C [26]: 21.7% | viability, T/C [27]: 27.3% | viability, T/C [28]: 30.4% | viability, T/C (second compound 1 µM, first compound 0.00316 µM): 22.7% | viability, T/C (second compound 1 µM, first compound 0.01 µM): 20.9% | viability, T/C [31]: 23.2% | viability, T/C [32]: 21.2% | viability, T/C [33]: 24.9% | viability, T/C [34]: 37.9%

Cc1nc(N2CCC3(CC2)COC(C)C3N)c(CO)nc1Sc1ccnc(N)c1Cl (stereo not given) + C=CC(=O)N1CCN(c2nc(OCC3CCCN3C)nc3c(F)c(-c4nc(N)cc(C)c4C(F)(F)F)c(Cl)cc23)C(C)C1
IC50 (second compound 0.00316 µM): < 31.6 nM | IC50 (second compound 0.01 µM): < 31.6 nM | IC50 (second compound 0.0316 µM): < 31.6 nM | IC50 (second compound 0.1 µM): < 31.6 nM | IC50 (second compound 0.316 µM): < 31.6 nM | IC50 (second compound 1 µM): < 31.6 nM | viability, T/C [1]: 24.8% | viability, T/C [2]: 21.8% | viability, T/C [3]: 17.4% | viability, T/C [4]: 15% | viability, T/C [5]: 15.1% | viability, T/C [6]: 14.8% | viability, T/C [7]: 30.3% | viability, T/C [8]: 19.8% | viability, T/C [9]: 25% | viability, T/C [10]: 15.4% | viability, T/C [11]: 14.8% | viability, T/C [12]: 14.2% | viability, T/C [13]: 21.1% | viability, T/C [14]: 19.3% | viability, T/C [15]: 13.8% | viability, T/C [16]: 13.8% | viability, T/C [17]: 15.8% | viability, T/C [18]: 17.7% | viability, T/C [19]: 20% | viability, T/C [20]: 15.1% | viability, T/C [21]: 15.7% | viability, T/C [22]: 13.2% | viability, T/C [23]: 17.5% | viability, T/C [24]: 14.4% | viability, T/C [25]: 15.9% | viability, T/C [26]: 16.4% | viability, T/C [27]: 16% | viability, T/C [28]: 13.4% | viability, T/C [29]: 17.7% | viability, T/C [30]: 17.8% | viability, T/C [31]: 21.5% | viability, T/C [32]: 15.2% | viability, T/C [33]: 19.2% | viability, T/C [34]: 15.1% | viability, T/C [35]: 15.9% | viability, T/C [36]: 18.9%

NC1c2ccccc2OC12CCN(c1cnc3c(N4CCCc5ncccc54)n[nH]c3n1)CC2 (stereo not given) + C=CC(=O)N1CCN(c2nc(OCC3CCCN3C)nc3c(F)c(-c4nc(N)cc(C)c4C(F)(F)F)c(Cl)cc23)C(C)C1
IC50 (second compound 0.00316 µM): < 31.6 nM | IC50 (second compound 0.01 µM): < 31.6 nM | IC50 (second compound 0.0316 µM): < 31.6 nM | IC50 (second compound 0.1 µM): < 31.6 nM | IC50 (second compound 0.316 µM): < 31.6 nM | IC50 (second compound 1 µM): < 31.6 nM | viability, T/C [1]: 21.3% | viability, T/C [2]: 17.9% | viability, T/C [3]: 18.1% | viability, T/C [4]: 16.3% | viability, T/C [5]: 13.4% | viability, T/C [6]: 16.3% | viability, T/C [7]: 20.1% | viability, T/C [8]: 17.6% | viability, T/C [9]: 13.2% | viability, T/C [10]: 16.3% | viability, T/C [11]: 15.4% | viability, T/C [12]: 16.6% | viability, T/C [13]: 20.4% | viability, T/C [14]: 18.5% | viability, T/C [15]: 13.9% | viability, T/C [16]: 14.5% | viability, T/C [17]: 15.9% | viability, T/C [18]: 14.8% | viability, T/C [19]: 18.3% | viability, T/C [20]: 15.1% | viability, T/C [21]: 15.3% | viability, T/C [22]: 12.8% | viability, T/C [23]: 16.3% | viability, T/C [24]: 14.2% | viability, T/C [25]: 18.4% | viability, T/C [26]: 16.6% | viability, T/C [27]: 14.5% | viability, T/C [28]: 13.6% | viability, T/C [29]: 14.2% | viability, T/C [30]: 12.9% | viability, T/C [31]: 18.7% | viability, T/C [32]: 14.1% | viability, T/C [33]: 16.4% | viability, T/C [34]: 15.8% | viability, T/C [35]: 14.9% | viability, T/C [36]: 15.9%

From PubChem BioAssay AID2060901 (Molecular Pharmacology Branch, DTP, NCI, 2025)
